Source: patent US4284639A, “Combating fungi with 1-phenoxy-2-(2,4-dichlorophenyl)-1-(1,2,4-triazol-1-yl)-ethan-2-ones and -ols” (Bayer Aktiengesellschaft, priority 1977, dated 1981)
Converted amounts (≈) assume the structure as drawn. Read-outs that look alike come from different tables or passages of the source.

Key:
[1] = system: Erysiphe graminis var. hordei; experiment: Shoot treatment test/powdery mildew of cereal/protective (leaf-destructive mycosis); assay type: in vivo; settings: 0.025 % by weight active compound in the spray liquor; barley; after 6 days; protective
Method: (§1) To produce a suitable preparation of active compound, 0.25 part by weight of active compound was taken up in 25 parts by weight of dimethylformamide and 0.06 part by weight of alkylaryl polyglycol ether; 975 parts by weight of water were then added. The concentrate was diluted with water to the desired final concentration of the spray liquor.
To test for protective activity, single-leaved young barley plants of the Amsel variety were sprayed with the preparation of active compound until dew-moist. After drying, the barley plants were dusted with spores of Erysiphe graminis var. hordei.
After 6 days' dwell time of the plants at a temperature of 21°-22° C. and 80-90% atmospheric humidity the occurrence of mildew pustules on the plants was evaluated. The degree of infection was expressed as a percentage of the infection of the untreated control plants. 0% denoted no infection and 100% denoted the same degree of infection as in the case of the untreated control.

Puccinia recondita = experiment: Shoot treatment test/cereal rust (leaf-destructive mycosis)/protective; assay type: in vivo; settings: 0.025 % by weight active compound in the spray liquor; wheat; after 10 days; protective
Method: as §1, with “ether and then” for “ether;”, “were” for “were then”
To test the protective activity, one-leaved young wheat plants of the Michigan Amber variety were inoculated with a uredospore suspension of Puccinia recondita in 0.1% strength aqueous agar. After the spore suspension had dried on, the wheat plants were sprayed with the preparation of active compound until dew-moist and were placed, for incubation, in a greenhouse for 24 hours at about 20° C. and 100% relative atmospheric humidity.
After 10 days' dwell time of the plants at a temperature of 20° C. and 80-90% atmospheric humidity, the occurrence of rust pustules on the plant was evaluated. The degree of infection was expressed as a percentage of the infection of the untreated control plants. 0% denoted no infection and 100% denoted the same degree of infection as in the case of the untreated control.

Podosphaera leucotricha = experiment: Podosphaera test (apple)/protective; assay type: in vivo; settings: apple seedlings, 10 days after inoculation, protective
Method: (§2) Solvent: 4.7 parts by weight of acetone
(§3) Emulsifier: 0.3 part by weight of alkylaryl polyglycol ether
(§4) Water: 95 parts by weight
The amount of active compound required for the desired concentration of the active compound in the spray liquid was mixed with the stated amount of solvent, and the concentrate was diluted with the stated amount of water which contained the stated amount of emulsifier.
Young apple seedlings in the 4-6 leaf stage were sprayed with the spray liquid until dripping wet. The plants remained in a greenhouse for 24 hours at 20° C. and at a relative atmospheric humidity of 70%. They were then inoculated by dusting the conidia of the apple powdery mildew causative organism (Podosphaera leucotricha) and placed in a greenhouse at a temperature of 21°-23° C. and at a relative atmospheric humidity of about 70%.
10 days after the inoculation, the infection of the seedlings was determined. The assessment data were converted to % infection. 0% meant no infection; 100% meant that the plants were completely infected.

Candida albicans = experiment: Anti-mycotic in vitro activity, series dilution test; assay type: cell-based; settings: read-out: Minimum inhibitory concentration
Method: (§5) The in vitro tests were carried out in a series dilution test with germ inocula of an average of 5×10^4 germs/ml of substrate. The nutrient medium was (a) for dermatophytes and moulds: Sabouraud's milieu d'epreuve and (b) for yeasts; meat extract/glucose broth.
(§6) The incubation temperature was 28° C. and the duration of incubation was 24 to 96 hours.

Aspergillus species = experiment: as above; assay type: cell-based; settings: read-out: Minimum inhibitory concentration
Method: as §5, §6

Microsporon felineum = experiment: as above; assay type: cell-based; settings: read-out: Minimum inhibitory concentration
Method: as §5, §6

Penicillium commune = experiment: as above; assay type: cell-based; settings: read-out: Minimum inhibitory concentration
Method: as §5, §6

Trichophyton mentagr. = experiment: as above; assay type: cell-based, Trichophyton mentagrophytes; settings: read-out: Minimum inhibitory concentration
Method: as §5, §6

Erysiphe cicohiacearum = experiment: Erysiphe test (cucumber)/protective; assay type: in vivo; settings: cucumber plants, after 12 days, protective
Method: as §2, §3, §4
The amount of the active compound required for the desired concentration of active compound in the spray liquid was mixed with the stated amount of solvent and the concentrate was diluted with the stated amount of water containing the stated amount of emulsifier.
Young cucumber plants with about three foliage leaves were sprayed with the spray liquid until dripping wet. The cucumber plants remained in a greenhouse for 24 hours to dry. They were then, for the purpose of inoculation, dusted with conidia of the fungus Erysiphe cicohiacearum. The plants were subsequently placed in a greenhouse at 23°-24° C. and at a relative atmospheric humidity of about 75%.
After 12 days, the infection of the cucumber plants was determined. The assessment data were converted to percent infection. 0% meant no infection; 100% meant that the plants were totally infected.

Torulopsis glabrata = experiment: Anti-mycotic in vitro activity, series dilution test; assay type: cell-based; settings: Nakaseomyces glabratus; γ/ml of nutrient medium; 28° C.; 24 to 96 hours; read-out: Minimum inhibitory concentration
Method: as §5, §6

[2] = γ/ml of nutrient medium, 28° C., 24 to 96 hours

Row | MIC (Candida albicans; [2]) [µg/mL] | MIC (Aspergillus species; [2]) [µg/mL] | MIC (Microsporon felineum; [2]) [µg/mL] | MIC (Penicillium commune; [2]) [µg/mL] | MIC (Trichophyton mentagr.; [2]) [µg/mL] | SMILES | Infection in % of the untreated control [1] [%] | also measured
1 |  |  |  |  |  | CC(C)(C)C(=O)C(Oc1ccc(-c2ccc(Cl)cc2)cc1)n1cncn1 (stereo not shown) [A, reference compound] | 55.0 | 
2 |  |  |  |  |  | CC(C)(C)C(=O)C(Oc1ccc(-c2ccccc2)cc1)n1cncn1 (stereo not shown) [B, reference compound] |  | Infection in % of the untreated control (Puccinia recondita): 33.8%
3 |  |  |  |  |  | CC(C)(C)C(O)C(Oc1ccc(Cl)cc1Cl)n1cncn1 (stereo not shown) [C, reference compound] |  | Infection in % of the untreated control (Puccinia recondita): 33.8%
4 | 8 | 64 | 32 | > 64 | 4 | Cl.OC(c1ccc(Cl)cc1Cl)C(Oc1ccc(Cl)cc1)n1cncn1 (stereo not shown) [Compound 3, 1-(4-chlorophenoxy)-2-(2,4-dichlorophenyl)-1-(1,2,4-triazol-1-yl)-ethan-2-ol hydrochloride] | 7.5 | Infection in % at an active compound concentration of 0.001% (Podosphaera leucotricha): 0%; Infection in % at an active compound concentration of 0.00025% (Erysiphe cicohiacearum): 6%
5 |  |  |  |  |  | O=C(c1ccc(Cl)cc1Cl)C(Oc1ccc(Cl)cc1Cl)n1cncn1 (stereo not shown) [Compound 4] | 0.0 | 
6 |  |  |  |  |  | O=C(c1ccc(Cl)cc1Cl)C(Oc1ccc(-c2ccc(Cl)cc2)cc1)n1cncn1 (stereo not shown) [Compound 6] | 16.3 | 
7 | 8 (≈ 19.1 µM) | 64 (≈ 153 µM) | 32 (≈ 76.4 µM) | > 64 | 4 (≈ 9.54 µM) | OC(c1ccc(Cl)cc1Cl)C(Oc1ccc(Cl)cc1Cl)n1cncn1 (stereo not shown) [Compound 14] | 0.0 | Infection in % at an active compound concentration of 0.001% (Podosphaera leucotricha): 0%; MIC (Torulopsis glabrata): 32 µg/mL (≈ 76.4 µM); Infection in % at an active compound concentration of 0.00025% (Erysiphe cicohiacearum): 16%
8 | 32 (≈ 75.1 µM) | > 64 | < 1 | > 64 | < 1 | OC(c1ccc(Cl)cc1Cl)C(Oc1ccc(-c2ccccc2)cc1)n1cncn1 (stereo not shown) [Compound 15] | 37.5 | MIC (Torulopsis glabrata): 1 µg/mL (≈ 2.35 µM); Infection in % at an active compound concentration of 0.00025% (Erysiphe cicohiacearum): 12%
9 | 8 (≈ 17.4 µM) | > 64 | 4 (≈ 8.68 µM) | > 64 | < 1 | OC(c1ccc(Cl)cc1Cl)C(Oc1ccc(-c2ccc(Cl)cc2)cc1)n1cncn1 (stereo not shown) [Compound 16] | 37.5 | MIC (Torulopsis glabrata): 1 µg/mL (≈ 2.17 µM)
10 |  |  |  |  |  | CC(C)(C)C(=O)C(Oc1ccc(Cl)cc1)n1cncn1 (stereo not shown) [D, reference compound] |  | Infection in % at an active compound concentration of 0.001% (Podosphaera leucotricha): 42%; MIC (Candida albicans): 40 µg/mL (≈ 136 µM); MIC (Aspergillus species): 100 µg/mL (≈ 340 µM); MIC (Microsporon felineum): 100 µg/mL (≈ 340 µM); MIC (Penicillium commune): > 100 µg/mL; MIC (Trichophyton mentagr.): 4 µg/mL (≈ 13.6 µM)
11 |  |  |  |  |  | CC(C)(C)C(O)C(Oc1ccc(-c2ccccc2)cc1)n1cncn1 (stereo not shown) [E, reference compound] |  | Infection in % at an active compound concentration of 0.00025% (Erysiphe cicohiacearum): 62%
12 | 40 (≈ 122 µM) | 100 (≈ 305 µM) | 100 (≈ 305 µM) | > 100 | 4 (≈ 12.2 µM) | CC(C)(C)C(=O)C(Oc1ccc(Cl)cc1Cl)n1cncn1 (stereo not shown) [F, reference compound] |  | 
13 |  |  |  | > 100 |  | O=C(c1ccc(Cl)cc1)C(Oc1ccc(Cl)cc1Cl)n1cncn1 (stereo not shown) [G, reference compound] |  | 
14 | 64 (≈ 200 µM) | > 64 | 64 (≈ 200 µM) | > 64 | 4 (≈ 12.5 µM) | COC(=O)c1ccc(OC(C(O)C(C)(C)C)n2cncn2)cc1 (stereo not shown) [H, reference compound] |  | 
15 | 64 (≈ 203 µM) |  |  | > 64 | 64 (≈ 203 µM) | OC(c1ccccc1)C(Oc1ccc(Cl)cc1)n1cncn1 (stereo not shown) [K, reference compound] |  | 

Row | SMILES | MIC (Candida albicans; [2]) [µg/mL] | MIC (Aspergillus species; [2]) [µg/mL] | MIC (Microsporon felineum; [2]) [µg/mL] | MIC (Penicillium commune; [2]) [µg/mL] | MIC (Trichophyton mentagr.; [2]) [µg/mL] | Infection in % of the untreated control [1] [%] | also measured
16 | Cl.O=C(c1ccc(Cl)cc1Cl)C(Oc1ccc(Cl)cc1)n1cncn1 (stereo not shown) [Compound 2, 1-(4-Chlorophenoxy)-2-(2,4-dichlorophenyl)-1-(1,2,4-triazol-1-yl)-ethan-2-one hydrochloride] | 32 | > 64 | 32 | > 64 | 4 | 0.0 | Infection in % at an active compound concentration of 0.001% (Podosphaera leucotricha): 25%; Infection in % of the untreated control (Puccinia recondita): 12.5%; Infection in % at an active compound concentration of 0.00025% (Erysiphe cicohiacearum): 12%
17 | O=C(c1ccc(Cl)cc1Cl)C(Oc1ccc(-c2ccccc2)cc1)n1cncn1 (stereo not shown) [Compound 5] | 32 (≈ 75.4 µM) | > 64 |  | > 64 | < 1 |  | MIC (Torulopsis glabrata): 32 µg/mL (≈ 75.4 µM); Infection in % of the untreated control (Puccinia recondita): 10.0%
